# Measurements from ChEMBL document CHEMBL3507680, “University of Dundee, Gates Library screen for HepG2 cell viability”.
# Test: Human HepG2 cell viability assay in 384 well format
# Assay type: toxicity, cell-based
# Design: dose 125 nL, time 70.5 hour; concentration not given beside the values
# Settings: HepG2 cells, read-out: Inhibition
row,SMILES,cytotoxicity at 70.5 h [%]
1,Cc1ccc(-c2c(-c3ccccc3)ncn2CCCN2CCOCC2)o1,-11.8
2,OC1CCCN(CCNc2ncc(Cl)cc2F)C1 (stereo unspecified),16.2
3,CO[C@H]1CNC[C@@H]1NC(=O)c1cc(C)nc2c(C)c(C)ccc12,5.29
4,Cc1nc(CN2CCN(C(=O)C(c3ccccc3C)N(C)C)CC2)no1 (stereo unspecified),-7.12
5,Cn1c(N2CCOCC2)nc2cc(C(=O)N3CCCOCC3)ccc21,-12.1
6,Cc1ccccc1CN1CCN(C(=O)c2ccn(C(C)(C)C)c2)CC1,16.3
7,Cc1nc(C(=O)N2CCCCC2c2ccc(CN(C)C)cc2)c(C)o1 (stereo unspecified),-4.13
8,CCN(CCN(C)C)c1nc(CCN)nc2sc(C)c(C)c12,8.66
9,O=C(NC[C@@H]1CCCO1)c1ccc(S(=O)(=O)N[C@@H]2CCNC2)cc1,6
10,CCCc1n[nH]cc1C(=O)NCC1COc2cc(OC)ccc2C1 (stereo unspecified),14.2
11,CCc1nc(C)sc1CN1CC[C@@](O)(CCOC)[C@H](C)C1,-5.48
12,Cc1nccn1CCCN1CCCC(c2ccccc2)C1 (stereo unspecified),-1.68
13,O=C(c1cccs1)N1CC(Oc2ccccc2Cl)C1,-0.814
14,CNc1ncccc1C(=O)N1CCCC2(CCN(C)CC2)CC1,-1.7
15,COc1ccc(OC)c(C2CCN(CC(C)(C)N3CCOCC3)C2)c1 (stereo unspecified),-4.45
16,CC(C)C1CN(C(=O)c2cn3ccccc3n2)CCCN1CC1CC1 (stereo unspecified),-10.1
17,c1ccc(OCCSC2=NCCN2)cc1,-2.35
18,Cc1nc(-c2nnc(SCC(=O)O)n2C(C)c2ccccc2)co1 (stereo unspecified),-10
19,Cc1nc(O)cc(C2CCCN(C(=O)COCc3ccccc3)C2)n1 (stereo unspecified),1.06

row,SMILES,cytotoxicity at 70.5 h [%]
1,CCOCCC(=O)N(C)CC1Cc2ccccc2CN1C (stereo unspecified),-0.994
2,CCCn1c(C)c(CC(=O)NC(C)(C)CO)c2c1CC(C)(C)CC2=O,0.294
3,Cc1ccc(C(=O)N2CCCC(N)CC2)cc1N1CCNC1=O (stereo unspecified),-2.27
4,O=C(O)[C@@H]1CN(C(=O)CCc2ccccn2)C[C@H]1c1ccccc1,-4.59
5,c1cc(CCNc2ncnc3c2CCN(Cc2ccoc2)CC3)ccn1,0.564
6,COCCCN1C(=O)CC[C@H]2CN(Cc3ccc4occc4c3)CC[C@H]21,26.4
7,COC(C)(C)C(=O)NCC1CCN(Cc2cc3ccccc3[nH]2)C1 (stereo unspecified),-17.4
8,COCCNc1nc2c(c(NCc3cnc(C)c(C)c3)n1)CCNCC2,-3.2
9,Cc1cc(N2Cc3cnn(CCO)c3C2)nc(-c2ccccc2O)n1,-4.43
10,c1cn(CC2CCOCC2)c(-c2cc(CN3CCCC3)cs2)n1,-3.55
11,COCCC1(C(=O)O)CCN(c2cc(C)c3ccccc3n2)CC1,18.8
12,CN(C)C(C(=O)NCC1(Cn2cccn2)CC1)c1ccc(F)cc1 (stereo unspecified),3.72
13,COc1ccc([C@@H]2CN(Cc3ccncc3)C[C@H]2N(C)C)cc1,-9.42
14,O=C(O)[C@@H]1CN(C(=O)NCC2CCCCC2)C[C@H]1c1ccccn1,-2.76
15,CCCOCC1CCN(C(=O)c2cnc(C)nc2O)C1 (stereo unspecified),-2.13
16,CSc1nccc(N2CCC(NCCN3CCOCC3)CC2)n1,-6.94
17,COc1ccccc1C(C(=O)O)N1CCCN(C2CCCC2)CC1 (stereo unspecified),16.1
18,O=C(NC1CC1)[C@H]1[C@@H]2CN(Cc3ccc(-c4ccn[nH]4)s3)C[C@@H]21,0.292
19,O=C1CC[C@@H](C(=O)N2CCc3[nH]nc(COc4cccc(Cl)c4)c3C2)N1,-8.37

row,SMILES,cytotoxicity at 70.5 h [%]
1,Oc1cccc(CN2CCN(C3CCc4ccccc4C3)CC2)c1 (stereo unspecified),19.8
2,CCO[C@H]1C[C@@H](O)C12CCN(C(=O)CN1CCCCCC1=O)CC2,6.65
3,Cc1nc(N(C)C)nc(NCCc2c[nH]cn2)c1C,23.7
4,CN(C)C1CCN(c2cc(-c3ccccc3)nc3ccnn23)C1 (stereo unspecified),5.02
5,Cc1nc2c(c(=O)n1C)CN(C(=O)C1CCCN(CC(N)=O)C1)C2 (stereo unspecified),8.71
6,CCc1ccc(CN2CCN(c3ccc(C#N)cc3)C(=O)C2)nc1,-10.5
7,Cc1nc(CN(C)C(=O)C2CC(=O)N(c3cccc(O)c3)C2)cs1 (stereo unspecified),-2.8
8,CC(C)[C@@H]1CN(Cc2c[nH]nc2-c2ccc(F)cc2)C[C@H]1NS(C)(=O)=O,-2.13
9,COC(=O)CNC(=O)CC1COc2ccc(C(=O)N(C)C)cc2N1C (stereo unspecified),-2.55
10,O=C(CN1CCCCCC1)NCCSc1cnn[nH]1,0.00682
11,CC(C)(C)CCN1CCC(c2nnc(Cn3cccn3)n2C2CC2)CC1,-9.38
12,Cc1c(C(=O)N[C@H]2CN(CCS(C)(=O)=O)C[C@@H]2C2CC2)cnn1C,-5.86
13,O=C1NCC2(CCCN(C(=O)c3c[nH]nc3-c3cccs3)C2)O1 (stereo unspecified),-8.3
14,CCOCC(=O)N1CCC(Cc2nnc(SC)n2C)CC1,-3.88
15,CCc1nc(N2CCN(CCOC)CC2)c2cnn(C)c2n1,-11.9
16,CCC1(CO)CCCN(Cc2nccn2Cc2ccccc2)C1 (stereo unspecified),-4.15
17,CCn1c(C2CCN(Cc3cc(C)n(NC(C)=O)c3C)CC2)n[nH]c1=O,-4.98
18,COC(=O)c1ccc(CN(C(C)C)C(C)C)o1,-2.95
